{
  "source": "patent US11918650B2",
  "about": "“Pharmaceutical composition comprising bispecific antibody constructs for improved storage and administration” (AMGEN INC., priority 2017, dated 2024)",
  "key": {"[1]": {"test_system": "CDR-H3 region (YISYW) of anti-CD3 domain", "experiment": "Hydrogen-deuterium exchange (HDX) mass spectrometry, effects of citrate and benzyl alcohol", "type": "physicochemical", "details": "addition to Tris-phosphate pH 6.0, 50 mM citrate, 0.9% benzyl alcohol", "from_the_text": "Hydrogen-deuterium exchange (HDX) is a chemical reaction in which a covalently bonded hydrogen atom is replaced by a deuterium atom, or vice versa. It can be applied most easily to exchangeable protons and deuterons, where such a transformation occurs in the presence of a suitable deuterium source, without any catalyst. The method gives information about the solvent accessibility of various parts of the molecule, and thus the tertiary structure of the protein.\nModel anti-FAPα domain, isolated anti-CD3 domain (I2C, as typically used throughout all example bispecific antibody constructs), CD33×CD3 bispecific antibody construct and EGFRvIII×CD3 bispecific antibody construct were examined. For FAPα, anti-CD3 domain, and CD33×CD3 bispecific antibody construct, the experimental procedure was same. Firstly, the protein samples were dialyzed into Tris-phosphate buffer (35 mM Tris, 17.5 mM phosphate, pH 6.0) and (35 mM Tris, 17.5 mM phosphate, 50 mM citrate, pH 6.0), respectively. The protein concentration was adjusted to 0.3 mg/mL after dialysis. […] Thirdly, the HDX reaction was quenched after 10s, 1 min, 10 min, 1 hr, 4 hr, and 12 hr, and then the quenched protein samples were analyzed by mass spectrometry. […] Thirdly, the HDX reaction was quenched after 10s, 10 min, 2 hr, 8 hr, 16 hr, 24 hr, and then the quenched protein samples were analyzed by mass spectrometry. […]"}, "[2]": {"test_system": "CD19×CD3 bispecific antibody construct", "experiment": "Preservative compatibility, percent HMW species by SEC-HPLC at pH 4", "type": "physicochemical", "details": "CD19×CD3 bispecific antibody construct 0.8 mg/mL, 10 mM glutamate pH 4.0, 9% sucrose, 0.01% polysorbate 80; preservative conc. of Table 4; 25° C., 14 days", "protocol": "In order to investigate the compatibility of known preservatives with a representative bispecific antibody construct according to the present invention, CD19×CD3 bispecific antibody construct was formulated in the presence of respective known preservatives with parameters as set out in Table 4.\nThe chosen preservative concentrations reflected standard concentrations employed in the art. The respective formulations were stored at 25° C. for 14 days and examined on day 0, 1, 3, 7 and 14 by size exclusion chromatography (SEC-HPLC)."}, "[3]": {"test_system": "CD19×CD3 bispecific antibody constructs", "experiment": "Denaturation assay (guanidinium chloride) with fluorescence detection", "type": "physicochemical", "details": "2.5 hours at 25° C., pH 7; excitation 280 nm, emission 300 to 400 nm", "protocol": "FIG. 4: Denaturation diagram of CD19×CD3 bispecific antibody constructs at a concentration of 1 mg/ml in presence or absence of preservative benzyl alcohol as determined by fluorescence spectrometry […].\nImproved stability of a representative bispecific antibody construct of the present invention conferred by a preservative such as benzyl alcohol was further examined by a denaturation assay using fluorescence as detection means. Experimental conditions comprised guanidinium chloride as denaturant which concentration was plotted on the x-axis (see FIG. 4). Incubation time was 2.5 hours at 25° C. at near-physiologic pH 7. Fluorescence excitation was set to 280 nm and the emission scan was run from 300 to 400 nm. The percentile denaturated fraction was calculated from the fluoresces assay as standard in the art. The result can be seen in FIG. 4. The grey curve represents the formulation comprising benzyl alcohol, the black curve the formulation without preservative. […] This means that it takes more denaturant to unfold this region, i.e. the CD3 domain, which translates into improved stability conferred by the preservative."}, "[4]": {"test_system": "Pseudomonas aeruginosa (ATCC 9027)", "experiment": "Microbial challenge study in IV bags", "type": "cell-based", "details": "20-25° C.", "protocol": "(§1) This example was a microbial challenge study in support of CD19×CD3 bispecific antibody construct drug product (DP) administered via an intravenous (IV) bag. The study was performed to evaluate the ability of different concentrations (0.5%-0.74%) of benzyl alcohol (BeOH) to reduce or eliminate microbial growth in IV bags holding blinatumomab infusion solution containing benzyl alcohol, CD19×CD3 bispecific antibody construct DP, and intravenous solution stabilizer (IVSS) kept at 20-25° C. for up to 14 days.\n(§2) The study was carried out to evaluate the growth of six different microorganisms in IV bags filled with 109 mL of CD19×CD3 bispecific antibody construct infusion solution containing benzyl alcohol (BeOH, at a final concentration of 0.0%, 0.5%, 0.6% or 0.74%), CD19×CD3 bispecific antibody construct DP, and IVSS. The prepared IV bags were held at 20-25° C. for up to 14 days.\n(§3) The bacteria and yeast selected for the study are representative of known human pathogens commonly isolated from nosocomial infections. These microorganisms include Candida albicans (ATCC 10231), Enterobacter cloacae (ATCC 13047), Escherichia coli (ATCC 8739), Micrococcus luteus (ATCC 4698), Pseudomonas aeruginosa (ATCC 9027), and Staphylococcus aureus (ATCC 6538).\n(§4) Test Articles: The test articles assessed in the study were blinatumomab infusion solution filled in IV bags containing 1.91 μg/mL conc. blinatumomab in a total volume of 109 mL/bag. The solution was made up by the addition of 2.2 mL IVSS, 16.8 mL of pooled reconstituted blinatumomab DP (210 μg), and a combined total volume of 90 mL of saline solution and saline solution with 0.9% benzyl alcohol (basaline). The four different levels of BeOH (0.0%, 0.5%, 0.6% and 0.74%) assessed in the study were achieved by adding different amounts of saline and basaline. For example, the bag with 0.0% BeOH (positive control) was prepared by adding 90 mL of saline, while the bag with 0.6% BeOH was prepared by adding 18 mL saline and 72 mL 0.9% bsaline, to the 2.2 mL IVSS and 16.8 mL blinatumomab DP. Refer to Appendix A for more details. Note that the illustration for 0.0% BeOH positive control in FIG. 1 (Schematic of IV Bag Preparation) of Appendix A of this report and in the same illustration in FIG. 4 of Appendix D inadvertently stated the final BeOH concentration to be 0.5%, instead of 0.0%. This is a typographic error and has no impact on the study outcome.\n(§5) A total of 24 CD19×CD3 bispecific antibody construct infusion solution filled IV bags were assessed to evaluate the effect of four levels of benzyl alcohol on the aforementioned six different microorganisms (6×4=24). An approximate 1 mL of inoculum containing <1×10^4 CFU microbes was inoculated through the injection port into each bag that yielded an initial microbial load at ˜1×10^2 CFU/mL. After inoculation, the sampling port on the bag was cleaned with sterile IPA and the bag was mixed briefly and then incubated at 20-25° C.\n(§6) Sampling and titration procedures: At each time point of 0-hour, 4-day, 8-day, 10-day, 12-day and 14 day, a 3 mL aliquot was collected from each assessed bag and titrated.\n(§7) Sample titration was performed by membrane filtration in duplicate of 1 mL aliquots for each timed sample. Additional dilutions were performed to obtain countable results (<300 CFU/plate)."}, "[5]": {"test_system": "Candida albicans (ATCC 10231)", "experiment": "Microbial challenge study in IV bags", "type": "cell-based", "details": "all three levels of BeOH (0.5%, 0.6%, 0.74%) in blinatumomab infusion solution; 20-25° C.", "protocol": "as §1, §2, §3, §4, §5, §6, §7"}, "[6]": {"test_system": "Micrococcus luteus (ATCC 4698)", "experiment": "Microbial challenge study in IV bags", "type": "cell-based", "details": "20-25° C.", "protocol": "as §1, §2, §3, §4, §5, §6, §7"}, "[7]": {"test_system": "Staphylococcus aureus (ATCC 6538)", "experiment": "Microbial challenge study in IV bags", "type": "cell-based", "details": "20-25° C.", "protocol": "as §1, §2, §3, §4, §5, §6, §7"}, "[8]": {"test_system": "Escherichia coli (ATCC 8739)", "experiment": "Microbial challenge study in IV bags", "type": "cell-based", "details": "20-25° C.", "protocol": "as §1, §2, §3, §4, §5, §6, §7"}, "[9]": {"test_system": "Enterobacter cloacae (ATCC 13047)", "experiment": "Microbial challenge study in IV bags", "type": "cell-based", "details": "20-25° C.", "protocol": "as §1, §2, §3, §4, §5, §6, §7"}, "[10]": {"experiment": "Frozen stability at −20° C. over 4 weeks, HMW species (FIG. 9, 10)", "type": "physicochemical", "details": "DLL3×CD3, pH 4"}, "[11]": {"details": "0.5%, 0.6% and 0.74% BeOH in blinatumomab infusion solution, inoculum 100 CFU/mL"}, "[12]": {"details": "all three assessed concentrations (0.5%, 0.6%, 0.74%), up to 14 days"}, "[13]": {"details": "0.5% or 0.6% BeOH in blinatumomab infusion solution"}, "[14]": {"details": "0.74% BeOH in blinatumomab infusion solution"}},
  "data": [
    {"smiles": "O=C(O)CC(O)(CC(=O)O)C(=O)O", "note": "[citrate]", "values": [
      {"measurement": "conformational dynamics of the region of residues 366-370 (YISYW) versus formulation of Tris-phosphate", "setting": "[1]", "value": "reduces the conformational dynamics of this region"}
    ]},
    {"smiles": "C[CH2][Hg][S]c1ccccc1C(=O)[O-].[Na+]", "note": "[Thimerosal, thimerosal]", "values": [
      {"measurement": "percent high molecular weight (HMW) species over time", "setting": "[2]", "value": "slight increase in HWM over time"}
    ]},
    {"smiles": "Oc1ccccc1", "note": "[phenol]", "values": [
      {"measurement": "percent high molecular weight (HMW) species over time", "setting": "[2]", "value": "HMW values overall remain constant"}
    ]},
    {"smiles": "COC(=O)c1ccc(O)cc1", "note": "[methylparabene, methylparaben]", "values": [
      {"measurement": "percent high molecular weight (HMW) species over time", "setting": "[2]", "value": "decrease in the percent high molecular weight (HMW) species over time"}
    ]},
    {"smiles": "OCc1ccccc1", "note": "[benzyl alcohol]", "values": [
      {"measurement": "denaturation curve (denaturated fraction vs guanidinium chloride) with benzyl alcohol versus without preservative", "setting": "[3]", "value": "shift to the right in the bottom portion of the curve"},
      {"measurement": "day from which no P. aeruginosa was recoverable", "setting": "[4]; [11]", "value": 4, "unit": "days"},
      {"measurement": "growth of P. aeruginosa", "setting": "[4]; [12]", "value": "completely inhibited"},
      {"measurement": "day on which challenged C. albicans was unrecoverable", "setting": "[5]", "value": 8, "unit": "days"},
      {"measurement": "day on which challenged M. luteus was unrecoverable", "setting": "[6]; [13]", "value": 14, "unit": "days"},
      {"measurement": "day on which challenged M. luteus was unrecoverable", "setting": "[6]; [14]", "value": 8, "unit": "days"},
      {"measurement": "day on which challenged S. aureus inoculum became unrecoverable", "setting": "[7]; [13]", "value": 8, "unit": "days"},
      {"measurement": "day on which challenged S. aureus inoculum became unrecoverable", "setting": "[7]; [14]", "value": 4, "unit": "days"},
      {"measurement": "day from which no E. coli was recoverable", "setting": "[8]; [11]", "value": 10, "unit": "days"},
      {"measurement": "growth of E. coli", "setting": "[8]; [12]", "value": "completely inhibited"},
      {"measurement": "day from which no E. cloacae was recoverable", "setting": "[9]; [11]", "value": 10, "unit": "days"},
      {"measurement": "growth of E. cloacae", "setting": "[9]; [12]", "value": "completely inhibited"},
      {"measurement": "benzyl alcohol concentration at which stabilizing effect on frozen stability is best", "setting": "[10]", "value": "above 0.1%"},
      {"measurement": "conformational dynamics of the region of residues 366-370 (YISYW) versus formulation of Tris-phosphate", "setting": "[1]", "value": "increases the conformational dynamics of this region"}
    ]}
  ]
}
